Test systems include SN12C renal; MDA-MB-231 breast; MOLT-4 leukemia; CCRF-CEM leukemia; RPMI-8226 leukemia; IGROV1 ovarian; NCI-H522 lung; 786-0 renal; MDA-MB-435; EKVX NSCLC.
Holding throughout (assay): DTP human tumour cell line panel, 48 h

Structures are written as SMILES. Values joined by “and” are separate entries in the source; they are usually repeats but may differ in a detail not shown here. Identical values can stand only once.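 Tested at 5 concentrations; 48 h exposure; 96-well plates; endpoints linearly interpolated, else capped at highest concentration. GI50 marks 50% less growth. Definition used: TGI = concentration required for complete inhibition of growth.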

As a reminder, the GI50 is the concentration at which growth is held to half of that of the control. As usually defined, the TGI is the concentration at which net growth stops.

With `CCCCC#CC1=C(Br)C(=O)OC1`, the GI50 in the experiment with SN12C renal is 1.58 µM; in the experiment on MDA-MB-231 breast it was 1.78 µM; in the experiment with MOLT-4 leukemia, 0.319 µM; with CCRF-CEM leukemia it was 0.261 µM; in the experiment with RPMI-8226 leukemia it was 0.32 µM; in the experiment on IGROV1 ovarian, 0.368 µM. Moreover, the GI50 in the experiment with NCI-H522 lung was 2.27 µM; in the experiment with 786-0 renal, 2 µM; with MDA-MB-435, 2.17 µM; with EKVX NSCLC, 3.79 µM. For the same molecule, the TGI is 4.27 µM in the experiment with SN12C renal; 4.03 µM in the experiment with MDA-MB-231 breast; above 100 µM with MOLT-4 leukemia; 2.72 µM in the experiment with RPMI-8226 leukemia; 3.33 µM with IGROV1 ovarian; 5.08 µM with NCI-H522 lung. The figures for the TGI in the experiment on 786-0 renal, in the experiment on MDA-MB-435 and in the experiment on EKVX NSCLC were 5.14 µM, 5.54 µM and 10.7 µM, respectively.

For `O=C(Nc1ccc(Nc2ccncc2)cc1)c1ccc([N+](=O)[O-])cc1`, the GI50 was 2.75 µM in the experiment on SN12C renal; 3.44 µM with MDA-MB-231 breast; 3.3 µM in the experiment with MOLT-4 leukemia; 3.37 µM in the experiment on CCRF-CEM leukemia; 2.5 µM with RPMI-8226 leukemia; 13 µM with IGROV1 ovarian. The GI50 in the experiment with NCI-H522 lung was 12.5 µM; in the experiment with 786-0 renal it was 3.47 µM; in the experiment on MDA-MB-435, 5.47 µM; with EKVX NSCLC, 11.2 µM. The total growth inhibition concentration (TGI) in the experiment on SN12C renal was 8.79 µM; in the experiment on MDA-MB-231 breast, 14.9 µM; in the experiment with MOLT-4 leukemia, above 33.3 µM; in the experiment on RPMI-8226 leukemia, 17 µM; with IGROV1 ovarian it was 36.9 µM; in the experiment on NCI-H522 lung, 34.6 µM. Further, the TGI was 14.6 µM in the experiment on 786-0 renal, 21.2 µM in the experiment with MDA-MB-435 and above 61.2 µM in the experiment with EKVX NSCLC.

In the case of `CCN(CC)CCC(CNc1ccnc2cc(Cl)ccc12)c1ccc(Cl)cc1` (centres undefined), the GI50 is 1.84 µM in the experiment on SN12C renal; 1.28 µM with MDA-MB-231 breast; 1.6 µM in the experiment with MOLT-4 leukemia; 1.27 µM in the experiment on CCRF-CEM leukemia; 1.02 µM in the experiment with RPMI-8226 leukemia; 2.27 µM with IGROV1 ovarian. The GI50 in the experiment with NCI-H522 lung was 0.608 µM; in the experiment with 786-0 renal, 1.34 µM; in the experiment on MDA-MB-435 it was 0.402 µM; in the experiment with EKVX NSCLC it was 3.85 µM. Further, the TGI with SN12C renal amounted to 10.4 µM; with MDA-MB-231 breast, 3.21 µM; with MOLT-4 leukemia it was 9.27 µM; in the experiment on CCRF-CEM leukemia it was 6.29 µM; with RPMI-8226 leukemia, 3.67 µM; with IGROV1 ovarian it was 7.33 µM. Further, the total growth inhibition concentration (TGI) turned out to be 2.19 µM with NCI-H522 lung, 2.68 µM with 786-0 renal, 1.65 µM in the experiment on MDA-MB-435 and 18.8 µM in the experiment with EKVX NSCLC.

Consider `S=C(Nc1ccc(Cl)cc1)Nc1ccc(-c2nc3ccccc3s2)cc1`, for which the GI50 is 15.4 µM with SN12C renal; 15.3 µM in the experiment with MDA-MB-231 breast; 15.6 µM in the experiment with CCRF-CEM leukemia; 20.9 µM in the experiment on RPMI-8226 leukemia; 16.8 µM with IGROV1 ovarian; 5.61 µM in the experiment with NCI-H522 lung. Besides, the GI50 is 16.3 µM with 786-0 renal, 13.4 µM with MDA-MB-435 and 15.1 µM in the experiment with EKVX NSCLC. The TGI with SN12C renal was 35 µM; with MDA-MB-231 breast it was 34.3 µM; in the experiment with MOLT-4 leukemia, above 100 µM; in the experiment on CCRF-CEM leukemia it was 54.8 µM; in the experiment on RPMI-8226 leukemia, 64.5 µM; in the experiment with IGROV1 ovarian, 37.9 µM. For the same molecule, the TGI in the experiment with NCI-H522 lung is 19.6 µM; with 786-0 renal it was 30.2 µM; in the experiment with MDA-MB-435, 29.8 µM; in the experiment on EKVX NSCLC, 42.9 µM.

Turning to `O=C(Nc1ccc(Br)cc1F)c1cc(F)ccc1O`, the GI50 was 0.366 µM in the experiment with SN12C renal; 0.41 µM in the experiment on MDA-MB-231 breast; 1.86 µM with MOLT-4 leukemia; 2.4 µM with CCRF-CEM leukemia; 0.296 µM in the experiment with RPMI-8226 leukemia; 0.37 µM in the experiment on IGROV1 ovarian. The GI50 was 0.319 µM with NCI-H522 lung, 2.41 µM in the experiment on 786-0 renal, 0.539 µM with MDA-MB-435 and 1.3 µM with EKVX NSCLC. For the same molecule, the TGI with SN12C renal was 2.92 µM; in the experiment with MDA-MB-231 breast, 4 µM; with MOLT-4 leukemia, 6.4 µM; in the experiment with CCRF-CEM leukemia, 13.9 µM; in the experiment with RPMI-8226 leukemia, 1.36 µM; in the experiment on IGROV1 ovarian, above 100 µM. For the same molecule, the TGI came out at 4.47 µM in the experiment with NCI-H522 lung, 7.49 µM in the experiment on 786-0 renal, 4.41 µM in the experiment with MDA-MB-435 and 7.38 µM in the experiment on EKVX NSCLC.

With `N#Cc1c(N)nc(N2CCOCC2)c(C#N)c1-c1ccncc1`, the GI50 in the experiment on SN12C renal was 88.6 µM; in the experiment with MDA-MB-231 breast, 21.6 µM; in the experiment on MOLT-4 leukemia, above 100 µM; with CCRF-CEM leukemia it was above 100 µM; in the experiment on RPMI-8226 leukemia, above 100 µM; in the experiment with IGROV1 ovarian it was 12.3 µM. Moreover, the GI50 in the experiment with NCI-H522 lung is 22.7 µM; with 786-0 renal, 95.7 µM; with MDA-MB-435, above 100 µM; in the experiment with EKVX NSCLC, 66.7 µM. The TGI in the experiment on SN12C renal is above 100 µM; in the experiment on MDA-MB-231 breast, above 100 µM; with MOLT-4 leukemia, above 100 µM; in the experiment with CCRF-CEM leukemia, above 100 µM; in the experiment on RPMI-8226 leukemia, above 100 µM; in the experiment with IGROV1 ovarian, 39.5 µM. Also, the TGI with NCI-H522 lung, in the experiment on 786-0 renal, in the experiment on MDA-MB-435 and in the experiment with EKVX NSCLC was above 100 µM throughout.

As to `Cn1c(I)c(C#CCO[Si](C)(C)C(C)(C)C)c(=O)[nH]c1=O`, the GI50 in the experiment on SN12C renal was 17.1 µM; with MDA-MB-231 breast, 17.3 µM; with MOLT-4 leukemia it was 1.82 µM; in the experiment on CCRF-CEM leukemia, 1.92 µM; with RPMI-8226 leukemia, 4.39 µM; in the experiment on IGROV1 ovarian, 17.2 µM. In addition, the GI50 in the experiment on NCI-H522 lung was 1.8 µM; with 786-0 renal, 18.6 µM; in the experiment on MDA-MB-435 it was 13.9 µM; with EKVX NSCLC it was 17.5 µM. Moreover, the concentration for total growth inhibition (TGI) stood at 34.2 µM in the experiment on SN12C renal; 33.1 µM with MDA-MB-231 breast; 4.32 µM in the experiment on MOLT-4 leukemia; 4.17 µM with CCRF-CEM leukemia; 14.2 µM in the experiment on RPMI-8226 leukemia; 32.7 µM with IGROV1 ovarian. Moreover, the TGI in the experiment on NCI-H522 lung was 3.95 µM; in the experiment on 786-0 renal, 33.2 µM; with MDA-MB-435, 27.8 µM; in the experiment with EKVX NSCLC it was 32.8 µM.

As for `CCOC(=O)C(C#N)C1=CC(=O)C(=O)c2ccc(OC)cc21` (centres undefined), the TGI in the experiment on SN12C renal is 33.8 µM; in the experiment with MDA-MB-231 breast, 29.1 µM; in the experiment on MOLT-4 leukemia, above 100 µM; in the experiment with CCRF-CEM leukemia, above 100 µM; with RPMI-8226 leukemia it was above 100 µM; in the experiment with IGROV1 ovarian, 35.2 µM. In addition, the TGI stood at 18.7 µM in the experiment on NCI-H522 lung, 64.9 µM in the experiment on 786-0 renal, 35.4 µM in the experiment with MDA-MB-435 and 51.8 µM in the experiment on EKVX NSCLC.

As for `CCOC(=O)c1ccc(NC(=O)Oc2ccc3c(C)cc(=O)oc3c2)cc1`, the TGI in the experiment with SN12C renal is above 100 µM; with MDA-MB-231 breast it was 82.8 µM; with MOLT-4 leukemia, 58 µM; with CCRF-CEM leukemia, 58.4 µM; with RPMI-8226 leukemia it was 72.9 µM; with IGROV1 ovarian, above 100 µM. Besides, the TGI with NCI-H522 lung is 66.7 µM; in the experiment with 786-0 renal it was above 100 µM; with MDA-MB-435, above 100 µM; with EKVX NSCLC it was above 100 µM.

As for `O=C(Nc1ccc2ncccc2c1)Nc1ccc2ncccc2c1`, the TGI with SN12C renal, in the experiment with MDA-MB-231 breast, with MOLT-4 leukemia, in the experiment on CCRF-CEM leukemia, with RPMI-8226 leukemia and in the experiment with IGROV1 ovarian was above 100 µM throughout. The TGI with NCI-H522 lung, in the experiment on 786-0 renal, in the experiment with MDA-MB-435 and in the experiment with EKVX NSCLC was above 100 µM throughout.

Take `CN(C)CCNC(=O)c1cccc2ccc(-c3ccc(O)cc3)nc12`: the TGI in the experiment on SN12C renal is 13.2 µM; with MDA-MB-231 breast, 11.6 µM; in the experiment on MOLT-4 leukemia, 0.692 µM; with CCRF-CEM leukemia, 7.25 µM; with RPMI-8226 leukemia, 8.56 µM; in the experiment with IGROV1 ovarian, 15.7 µM and 11.8 µM. The TGI in the experiment on NCI-H522 lung is 4.62 µM and 9.18 µM; in the experiment on 786-0 renal it was 14.4 µM; with MDA-MB-435 it was 15.5 µM; with EKVX NSCLC, 26.3 µM. The results for the GI50 in the experiment on IGROV1 ovarian and with NCI-H522 lung were 2.06 µM and 2.26 µM, respectively.

Consider `COc1cccc(C2CC(C)(O)Oc3cc4c(cc32)OCO4)c1O` (centres undefined), for which the TGI in the experiment on SN12C renal was 89.2 µM; with MDA-MB-231 breast, 67.7 µM; with MOLT-4 leukemia, above 94.3 µM; with CCRF-CEM leukemia, above 95.9 µM; in the experiment on RPMI-8226 leukemia it was above 78.2 µM; in the experiment on IGROV1 ovarian, above 100 µM. For the same molecule, the TGI in the experiment with NCI-H522 lung was 53.5 µM; with 786-0 renal it was above 100 µM; in the experiment with MDA-MB-435, 9.77 µM; with EKVX NSCLC it was 99.4 µM.

(Values after PubChem BioAssay (NCI).)
